Reference: US20100227873A1, “NITROGEN-CONTAINING HETEROCYCLIC COMPOUNDS AND METHODS OF USE THEREOF” (Schering Corporation, priority 2005, published 2010)

Target: recombinant human nicotinic acid receptor (NAR) (Homo sapiens, UniProt Q8TDS4)
Assay: Nicotinic acid receptor assay: inhibition of forskolin-stimulated cAMP accumulation (MesoScale Discovery cAMP detection kit) in CHO cells
Assay type: cell-based
Details: CHO cells expressing recombinant human NAR, activity class, read-out: NA EC50 camp
Description: The nicotinic acid receptor agonist activity of the inventive compounds was determined by following the inhibition of forskolin-stimulated cAMP accumulation in cells using the MesoScale Discovery cAMP detection kit following the manufacturer's protocol. Briefly, Chinese Hamster Ovary (CHO) cells expressing recombinant human nicotinic acid receptor (NAR) were harvested enzymatically, washed 1× in phosphate buffered saline (PBS) and resuspended in PBS containing 0.5 mM IBMX at 3×10^6 cells/mL. Ten μL of cell suspension was added to each well of a 384-well plate which contained 10 μL of test compounds. Test compounds were diluted with PBS containing 6 μM of forskolin. Plates were incubated for 30 minutes at room temperature after the addition of cells. Lysis buffer containing cAMP-Tag was added to each well (10 μL/well) as per the manufacturer's protocol. Plates were then incubated from 45 minutes to overnight. Prior to reading, 10 μt of read buffer was added to each well, and the plate was read in a Sector 6000 plate imager. The signal was converted to cAMP concentration using a standard curve run on each plate. Compound EC50 values were determined from concentration gradients of test compounds.

Chain of recombinant human nicotinic acid receptor (NAR) (Q8TDS4 whole entry): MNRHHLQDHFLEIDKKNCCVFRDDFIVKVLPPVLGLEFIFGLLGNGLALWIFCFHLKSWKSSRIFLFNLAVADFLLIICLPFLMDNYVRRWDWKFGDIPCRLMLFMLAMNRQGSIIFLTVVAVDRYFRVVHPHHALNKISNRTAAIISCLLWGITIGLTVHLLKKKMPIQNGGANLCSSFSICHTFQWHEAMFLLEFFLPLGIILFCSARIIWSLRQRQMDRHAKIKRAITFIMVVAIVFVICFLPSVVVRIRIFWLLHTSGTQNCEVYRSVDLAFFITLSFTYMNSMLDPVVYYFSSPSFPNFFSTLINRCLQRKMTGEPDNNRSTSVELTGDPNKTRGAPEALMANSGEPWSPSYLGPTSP

EC50: 100 to 1000 nM
SMILES: O=c1[nH]c(=O)c2c(Cc3cccc(Br)c3)cc(=O)oc2[nH]1 [Compound 238]
